As usually defined, the Ki is the dissociation constant of the complex between target and ligand, obtained from inhibition or displacement.

This is an account of results in PMC5321445, “Inhibition of Arabidopsis chloroplast β-amylase BAM3 by maltotriose suggests a mechanism for the control of transitory leaf starch mobilisation” (PLoS ONE, 2017).

Holding throughout (type): biochemical
The target in one assay is T1, BAM3 (Arabidopsis thaliana, UniProt O23553).
T1 sequence (O23553 50-548): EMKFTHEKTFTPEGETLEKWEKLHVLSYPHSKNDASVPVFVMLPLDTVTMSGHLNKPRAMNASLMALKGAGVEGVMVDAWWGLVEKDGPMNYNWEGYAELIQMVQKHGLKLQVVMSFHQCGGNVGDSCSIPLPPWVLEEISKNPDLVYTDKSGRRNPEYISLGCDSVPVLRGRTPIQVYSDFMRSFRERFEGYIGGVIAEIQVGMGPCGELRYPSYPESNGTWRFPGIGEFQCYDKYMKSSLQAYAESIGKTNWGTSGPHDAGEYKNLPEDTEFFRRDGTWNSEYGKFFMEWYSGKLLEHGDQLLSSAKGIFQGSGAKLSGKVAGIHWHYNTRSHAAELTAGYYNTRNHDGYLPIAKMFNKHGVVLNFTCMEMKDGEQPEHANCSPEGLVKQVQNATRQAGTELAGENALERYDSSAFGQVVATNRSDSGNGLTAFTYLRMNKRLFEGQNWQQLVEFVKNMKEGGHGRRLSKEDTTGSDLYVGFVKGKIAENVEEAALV
The experiment in a line: GC-MS maltose assay, Lineweaver-Burk and non-linear regression. To be noted: substrate maltohexaose 2.5-25 mM; mixed inhibition; 50 mM sodium acetate, 5 mM DTT, 5 mM EDTA, pH 6.0, 25°C.

Another assay addresses T2, BAM1 (Arabidopsis thaliana, UniProt Q9LIR6).
T2 sequence (Q9LIR6 42-575): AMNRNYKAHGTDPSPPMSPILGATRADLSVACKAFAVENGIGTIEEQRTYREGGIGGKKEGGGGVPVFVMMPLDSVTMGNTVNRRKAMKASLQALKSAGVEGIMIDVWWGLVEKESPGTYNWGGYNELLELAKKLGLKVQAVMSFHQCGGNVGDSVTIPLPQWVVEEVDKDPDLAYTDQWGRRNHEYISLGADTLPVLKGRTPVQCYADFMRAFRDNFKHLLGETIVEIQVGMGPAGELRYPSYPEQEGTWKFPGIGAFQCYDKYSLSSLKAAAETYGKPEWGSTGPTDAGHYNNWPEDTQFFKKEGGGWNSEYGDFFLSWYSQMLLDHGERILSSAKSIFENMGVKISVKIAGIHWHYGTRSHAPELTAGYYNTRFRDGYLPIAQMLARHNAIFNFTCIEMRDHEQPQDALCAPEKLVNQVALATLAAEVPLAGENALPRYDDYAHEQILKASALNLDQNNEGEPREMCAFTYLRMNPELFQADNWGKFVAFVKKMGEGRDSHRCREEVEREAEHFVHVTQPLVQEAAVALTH
The experiment in a line: Betamyl colorimetric assay, p-nitrophenol release. To be noted: 2.5 mM substrate, 0.1 M maleic acid pH 6.2, 40°C; enzyme pre-treated with 20 mM DTT.

The next assay has as its target T3, barley BAM (Hordeum vulgare, UniProt P16098).
T3 construct: gene BMY1; commercial barley seed beta-amylase (Sigma A7130), native preparation, lyophilised powder
The experiment in a line: Betamyl colorimetric assay, p-nitrophenol release. To be noted: 2.5 mM substrate, 0.1 M maleic acid pH 6.2, 40°C; enzyme pre-treated with 20 mM DTT.

T3 sequence (P16098 whole entry): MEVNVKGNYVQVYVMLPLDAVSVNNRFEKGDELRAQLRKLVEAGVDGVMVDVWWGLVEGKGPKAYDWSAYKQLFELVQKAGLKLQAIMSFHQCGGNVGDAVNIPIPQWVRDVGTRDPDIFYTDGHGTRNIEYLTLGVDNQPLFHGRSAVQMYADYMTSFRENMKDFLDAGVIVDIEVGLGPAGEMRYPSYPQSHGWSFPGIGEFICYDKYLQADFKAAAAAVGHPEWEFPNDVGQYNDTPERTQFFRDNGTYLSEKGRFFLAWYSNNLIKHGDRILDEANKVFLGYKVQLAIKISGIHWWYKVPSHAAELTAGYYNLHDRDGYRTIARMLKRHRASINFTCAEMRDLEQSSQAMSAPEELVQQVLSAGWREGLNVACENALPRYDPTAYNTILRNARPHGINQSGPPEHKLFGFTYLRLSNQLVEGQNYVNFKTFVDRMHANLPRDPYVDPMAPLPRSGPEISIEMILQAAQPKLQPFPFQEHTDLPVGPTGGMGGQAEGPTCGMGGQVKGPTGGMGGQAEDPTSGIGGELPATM

On BAM3, `OC[C@H]1O[C@H](O[C@H]2[C@H](O)[C@@H](O)[C@@H](O[C@H]3[C@H](O)[C@@H](O)C(O)O[C@@H]3CO)O[C@@H]2CO)[C@H](O)[C@@H](O)[C@@H]1O` (stereo partly drawn) [G3, maltotriose] had a Ki of 7.5 mM.

For `O=[N+]([O-])c1ccc(O[C@H]2O[C@H](CO)[C@@H](O[C@H]3O[C@H](CO)[C@@H](O[C@H]4O[C@H](CO)[C@@H](O[C@H]5O[C@H](CO)[C@@H](O[C@H]6O[C@H](CO)[C@@H](O)[C@H](O)[C@H]6O)[C@H](O)[C@H]5O)[C@H](O)[C@H]4O)[C@H](O)[C@H]3O)[C@H](O)[C@H]2O)cc1` [PNPG5, p-nitrophenyl maltopentaoside], the “Betamyl colorimetric assay, p-nitrophenol release” value at BAM1 is “we assayed recombinant BAM1 and commercially-purchased barley seed β-amylase, under the same conditions”; on barley BAM, “we assayed recombinant BAM1 and commercially-purchased barley seed β-amylase, under the same conditions”.
